What was measured:
[1] = biological target: T1, human cloned 5-HT6 receptors (Homo sapiens, UniProt P50406); assay: 5-HT6 binding affinity, [3H]-LSD displacement on membranes of Hela cells expressing human cloned 5-HT6 receptors; settings: [3H]-LSD 3.0 nM, Hela cell membranes, 120 min at room temperature; read-out: 5-HT6 Binding Ki
T1 construct: expressed in transfected cells; host or cells: HeLa cells (membrane preparation)
Description: The affinity of test compounds for the serotonin 5-HT6 receptor is evaluated in the following manner. Cultured Hela cells expressing human cloned 5-HT6 receptors are harvested and centrifuged at low speed (1,000×g) for 10.0 min to remove the culture media. The harvested cells are suspended in half volume of fresh physiological phosphate buffered saline solution and recentrifuged at the same speed. This operation is repeated. The collected cells are then homogenized in ten volumes of 50 mM Tris.HCl (pH 7.4) and 0.5 mM EDTA. The homogenate is centrifuged at 40,000×g for 30.0 min and the precipitate is collected. The obtained pellet is resuspended in 10 volumes of Tris.HCl buffer and recentrifuged at the same speed. The final pellet is suspended in a small volume of Tris.HCl buffer and the tissue protein content is determined in aliquots of 10-25 μl volumes. Bovine Serum Albumin is used as the standard in the protein determination according to the method described in Lowry et al., J. Biol. Chem., 193:265 (1951). The volume of the suspended cell membranes is adjusted to give a tissue protein concentration of 1.0 mg/ml of suspension. The prepared membrane suspension (10 times concentrated) is aliquoted in 1.0 ml volumes and stored at −70° C. until used in subsequent binding experiments.
Binding experiments are performed in a 96 well microtiter plate format, in a total volume of 200 μl. […] The test compounds are added in 20.0 μl volume.
The reaction is allowed to proceed in the dark for 120 min at room temperature, at which time, the bound ligand-receptor complex is filtered off on a 96 well unifilter with a Packard Filtermate® 196 Harvester. The bound complex caught on the filter disk is allowed to air dry and the radioactivity is measured in a Packard TopCount® equipped with six photomultiplier detectors, after the addition of 40.0 μl Microscint®−20 scintillant to each shallow well. The unifilter plate is heat-sealed and counted in a PackardTopCount® with a tritium efficiency of 31.0%.
Binding in the presence of varying concentrations of test compound is expressed as a percentage of specific binding in the absence of test compound. The results are plotted as log % bound versus log concentration of test compound. Nonlinear regression analysis of data points with a computer assisted program Prisms® yields both the IC50 and the Ki values of test compounds with 95% confidence limits.
The amount of displacement by the test compound is given in percent (%) inhibition and is derived from the following equation:
[formula] where B0 is the amount of CPM bound in the presence of the testing agent. NSB represents the CPM bound in the presence of a saturating concentration of a displacer and TB represents the total amount of CPM bound at zero (0) concentration of test compound.
Alternatively, a linear regression line of data points is plotted, from which the IC50 value is determined and the Ki value is determined based upon the following equation: Ki=IC50/(1+L/KD) where L is the concentration of the radioactive ligand used and KD is the dissociation constant of the ligand for the receptor, both expressed in nM.

T1 sequence (P50406 whole entry): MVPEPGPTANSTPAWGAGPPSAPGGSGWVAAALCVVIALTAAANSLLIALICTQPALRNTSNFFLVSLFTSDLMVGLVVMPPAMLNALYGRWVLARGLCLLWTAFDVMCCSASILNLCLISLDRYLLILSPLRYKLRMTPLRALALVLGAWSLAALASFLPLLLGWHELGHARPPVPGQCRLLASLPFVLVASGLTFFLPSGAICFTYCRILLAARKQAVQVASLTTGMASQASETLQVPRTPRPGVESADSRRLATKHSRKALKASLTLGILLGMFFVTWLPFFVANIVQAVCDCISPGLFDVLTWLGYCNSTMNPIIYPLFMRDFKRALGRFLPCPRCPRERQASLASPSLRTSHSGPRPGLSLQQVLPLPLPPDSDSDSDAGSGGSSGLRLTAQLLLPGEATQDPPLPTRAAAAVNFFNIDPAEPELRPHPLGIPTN

Row | SMILES | Ki [1] [nM] | melting point [°C]
1 | O=S(=O)(c1ccccc1)c1nn(-c2cccc(C(F)(F)F)c2)c2ccc(N3CCN(Cc4ccccc4)CC3)cc12 [Example 28] | 136 | 146 to 150
2 | O=S(=O)(c1ccccc1)c1nn(-c2ccc(C(F)(F)F)cc2)c2ccc(N3CCNCC3)cc12 [Example 33] | 19 | 170 to 172
3 | COc1cccc(-n2nc(S(=O)(=O)c3ccccc3)c3cc(N4CCNCC4)ccc32)c1 [Example 36] | 20 | 132 to 135
4 | O=S(=O)(c1ccccc1)c1nn(-c2ccc(F)c(Cl)c2)c2ccc(N3CCNCC3)cc12 [Example 38] | 73 | > 200
5 | O=S(=O)(c1ccccc1)c1nn(-c2cccc(C(F)(F)F)c2)c2ccc(N3CCNCC3)cc12 [Example 40] | 62 | 139 to 142
6 | O=S(=O)(c1ccccc1)c1nn(-c2ccc(I)cc2)c2ccc(N3CCNCC3)cc12 [Example 42] | 117 | > 200
7 | CN1CCN(c2ccc3[nH]nc(S(=O)(=O)c4ccc(F)cc4F)c3c2)CC1 [Example 68] | 14 | –
8 | CCCCc1ccc(S(=O)(=O)c2n[nH]c3ccc(N4CCN(C)CC4)cc23)cc1 [Example 74] | 26 | –
9 | CN1CCN(c2ccc3[nH]nc(S(=O)(=O)c4ccc(S(C)(=O)=O)cc4)c3c2)CC1 [Example 80] | 62 | –
10 | CN1CCN(c2ccc3[nH]nc(S(=O)(=O)c4ccccc4Br)c3c2)CC1 [Example 89] | 10 | –
11 | CN1CCN(c2cc(Cl)cc3c(S(=O)(=O)c4ccc(F)cc4)n[nH]c23)CC1 [Example 97, 5-Chloro-3[(4-fluorophenyl)sulfonyl]-7-(4-methylpiperazin-1-yl)-1H-indazole] | 12 | –
12 | CC(C)c1ccc(S(=O)(=O)c2n[nH]c3c(N4CCN(C)CC4)cc(Cl)cc23)cc1 [Example 98] | 22 | –
13 | CN1CCN(c2cc(Cl)cc3c(S(=O)(=O)c4cccc(C(F)(F)F)c4)n[nH]c23)CC1 [Example 99] | 20 | –

Stronger by Ki [1], values ahead:

Row | Ki [1] [nM] | melting point [°C] | SMILES
14 | 7 | > 250 | CN1CCN(c2ccc3[nH]nc(S(=O)(=O)c4ccc(Br)cc4)c3c2)CC1 [Example 17]
15 | 6 | 160 to 161 | CN1CCN(c2ccc3[nH]nc(S(=O)(=O)c4ccccc4F)c3c2)CC1 [Example 18]
16 | 6 | – | CN1CCN(c2ccc3[nH]nc(S(=O)(=O)c4c(Cl)cccc4Cl)c3c2)CC1 [Example 91]
17 | 5 | – | CN1CCN(c2cc(Cl)cc3c(S(=O)(=O)c4cccc5ccccc45)n[nH]c23)CC1 [Example 100]
18 | 5 | – | CN1CCN(c2cccc3c(S(=O)(=O)c4cccc5ccccc45)n[nH]c23)CC1 [Example 101]
19 | 4 | 159 to 161 | O=S(=O)(c1ccccc1)c1nn(-c2ccc(F)cc2)c2ccc(N3CCNCC3)cc12 [Example 37]
20 | 4 | – | CC(C)c1ccc(S(=O)(=O)c2n[nH]c3ccc(N4CCN(C)CC4)cc23)cc1 [Example 71]
21 | 3 | 127 to 130 | O=S(=O)(c1ccccc1)c1nn(CCc2ccccc2)c2ccc(N3CCNCC3)cc12 [Example 31]
22 | 3 | > 200 | CCn1nc(S(=O)(=O)c2ccccc2)c2cc(N3CCNCC3)ccc21 [Example 43]
23 | 3 | – | CN1CCN(c2ccc3[nH]nc(S(=O)(=O)c4ccc(Cl)s4)c3c2)CC1 [Example 70]
24 | 2 | > 250 | CN1CCN(c2ccc3[nH]nc(S(=O)(=O)c4ccc(Cl)s4)c3c2)CC1 [Example 15]
25 | 2 | > 250 | CN1CCN(c2ccc3[nH]nc(S(=O)(=O)c4cccc(F)c4)c3c2)CC1 [Example 19]
26 | 2 | – | CN1CCN(c2ccc3[nH]nc(S(=O)(=O)c4ccc5ccccc5c4)c3c2)CC1 [Example 72]
27 | 2 | – | COc1ccc(Cl)cc1S(=O)(=O)c1n[nH]c2ccc(N3CCN(C)CC3)cc12 [Example 77]
